This is an account of results in ChEMBL document CHEMBL1133239, “Acid catalyzed Michael additions to artemisitene” (2000).

Experiment [1] concerns Plasmodium falciparum. In words: Relative antimalarial activity compared to artemisinin against Plasmodium falciparum W-2. In kind it is functional.
Experiment [2] deals with Plasmodium falciparum. In words: Relative antimalarial activity compared to artemisinin against Plasmodium falciparum D6. It is filed as functional.

On to `C[C@@H]1CC[C@H]2[C@H](CCC(=O)C(C)(C)C)C(=O)O[C@@H]3OC4(C)CC[C@@H]1[C@]32OO4` (single isomer, unassigned), for which the Relative activity came out at 0.74 in the experiment with Plasmodium falciparum [1] and 4.5 in the experiment on Plasmodium falciparum [2].
For the molecule `C[C@@H]1CC[C@H]2[C@H](CC#N)C(=O)O[C@@H]3OC4(C)CC[C@@H]1[C@]32OO4` (single isomer, unassigned), the Relative activity in the experiment with Plasmodium falciparum [1] came to 0.036; in the experiment on Plasmodium falciparum [2], 0.17.
For `C[C@@H]1CC[C@H]2[C@@H](CC3C=CC(=O)O3)C(=O)O[C@@H]3OC4(C)CC[C@@H]1[C@]32OO4` (single isomer, unassigned) the same measures were 0.03 and 0.058.
Take `C[C@@H]1CC[C@H]2[C@@H](CC#N)C(=O)O[C@@H]3O[C@@]4(C)CC[C@@H]1[C@]32OO4`: the Relative activity was found to be 0.036 in the experiment on Plasmodium falciparum [1] and 0.17 in the experiment with Plasmodium falciparum [2].
As for `C[C@@H]1CC[C@H]2[C@@H](CCC(=O)C(C)(C)C)C(=O)O[C@@H]3OC4(C)CC[C@@H]1[C@]32OO4` (single isomer, unassigned), the values for the Relative activity with Plasmodium falciparum [1] and with Plasmodium falciparum [2] were 1.13 and 7.4, respectively.
With `C=CCC[C@H]1C(=O)O[C@@H]2OC3(C)CC[C@H]4[C@H](C)CC[C@@H]1[C@@]24OO3` (single isomer, unassigned), the Relative activity was 2.9 in the experiment on Plasmodium falciparum [1] and 2.3 in the experiment on Plasmodium falciparum [2].
For `C[C@@H]1CC[C@H]2[C@@H](CC3CCCC3=O)C(=O)O[C@@H]3OC4(C)CC[C@@H]1[C@]32OO4` (single isomer, unassigned) the same measures were 0.29 and 0.47.
On to `C[C@@H]1CC[C@H]2[C@@H](CC/C(=C/C(=O)c3ccccc3)c3ccccc3)C(=O)O[C@@H]3OC4(C)CC[C@@H]1[C@]32OO4` (single isomer, unassigned), for which the Relative activity in the experiment on Plasmodium falciparum [1] came to 0.55; in the experiment on Plasmodium falciparum [2], 6.2.
With `C[C@@H]1CC[C@H]2[C@H](CC3C=CC(=O)O3)C(=O)O[C@@H]3OC4(C)CC[C@@H]1[C@]32OO4` (single isomer, unassigned), the figures for the Relative activity with Plasmodium falciparum [1] and in the experiment on Plasmodium falciparum [2] were 0.037 and 0.33, respectively.
